Counter-ions that a name gives are not always drawn. Some results are limits rather than exact numbers.

This assay concerns the target T1, Integrin alpha-4 (Homo sapiens, UniProt P05556+P13612).
T1 sequence (P13612 whole entry): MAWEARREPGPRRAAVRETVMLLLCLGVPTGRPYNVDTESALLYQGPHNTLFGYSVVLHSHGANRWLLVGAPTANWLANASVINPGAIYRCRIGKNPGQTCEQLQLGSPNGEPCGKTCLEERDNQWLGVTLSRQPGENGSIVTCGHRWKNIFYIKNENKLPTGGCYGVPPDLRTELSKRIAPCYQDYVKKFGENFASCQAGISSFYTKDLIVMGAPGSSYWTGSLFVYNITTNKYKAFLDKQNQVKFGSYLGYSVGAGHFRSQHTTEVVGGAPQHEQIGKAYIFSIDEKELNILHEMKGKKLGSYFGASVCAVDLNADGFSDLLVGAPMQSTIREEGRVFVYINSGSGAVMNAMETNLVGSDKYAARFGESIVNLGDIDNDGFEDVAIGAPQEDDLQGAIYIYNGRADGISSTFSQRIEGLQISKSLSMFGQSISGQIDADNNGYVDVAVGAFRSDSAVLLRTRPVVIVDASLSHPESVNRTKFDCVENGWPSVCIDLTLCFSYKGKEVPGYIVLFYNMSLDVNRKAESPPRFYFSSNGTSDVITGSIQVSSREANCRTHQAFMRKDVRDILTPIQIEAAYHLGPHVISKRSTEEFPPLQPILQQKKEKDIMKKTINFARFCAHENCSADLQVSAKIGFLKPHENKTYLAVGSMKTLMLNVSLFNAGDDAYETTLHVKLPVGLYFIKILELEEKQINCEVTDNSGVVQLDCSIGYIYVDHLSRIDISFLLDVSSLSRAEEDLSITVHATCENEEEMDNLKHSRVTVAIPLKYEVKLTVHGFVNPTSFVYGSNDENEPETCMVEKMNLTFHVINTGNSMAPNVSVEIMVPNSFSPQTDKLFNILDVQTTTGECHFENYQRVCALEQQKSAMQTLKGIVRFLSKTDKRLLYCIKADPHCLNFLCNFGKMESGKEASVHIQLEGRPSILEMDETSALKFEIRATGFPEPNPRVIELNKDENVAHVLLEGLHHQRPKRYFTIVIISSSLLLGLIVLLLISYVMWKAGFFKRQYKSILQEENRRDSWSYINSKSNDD
The assay can be described thus: inhibition of LDV ligand binding to VLA-4 – cell-based, LDV-FITC binding, flow cytometry, dose response (AID 702).
In the case of `CCCCc1c(O)n(-c2ccccc2)n(-c2ccccc2)c1=O` [3,5-Dioxo-1,2-diphenyl-4-n-butylpyrazolidine], the EC50 was 1.06 µM.

With `Cc1csc(NC(=O)CSc2nsc(SCC(=O)Nc3nc(C)cs3)c2C#N)n1` [2-[[4-cyano-3-[2-[(4-methyl-1,3-thiazol-2-yl)amino]-2-oxidanylidene-ethyl]sulfanyl-1,2-thiazol-5-yl]sulfanyl]-N-(4-methyl-1,3-thiazol-2-yl)ethanamide], the EC50 is 20.2 µM. Compound `COc1cccc2sc(Nc3nc(-c4ccccn4)cs3)nc12` [(4-methoxy-1,3-benzothiazol-2-yl)-[4-(2-pyridyl)thiazol-2-yl]amine] yielded an EC50 of 6.78 µM. For `COc1ccc(Nc2cc(C)nc3ccccc23)cc1` [(4-methoxyphenyl)-(2-methyl-4-quinolyl)amine;hydrochloride], the midpoint of the response, the EC50, lay at 4.27 µM. `OC(CN1CCOCC1)CN(c1ccccc1)c1ccccc1` (centres undefined) [1-(4-morpholinyl)-3-(N-phenylanilino)-2-propanol;hydrochloride]: the response was half-maximal at 4.13 µM (EC50). Consider `CCOC(=O)c1c(C)oc2c1c1c(c3ccccc32)OCN(Cc2ccccn2)C1` [MLS000566323], for which the EC50 stood at 4.38 µM.

Regarding `CCOC(=O)c1sc(Nc2nc3c(OC)cccc3s2)nc1C` [SMR000027213], the response was half-maximal at 33.9 µM (EC50). For `CCOC(=O)N1CCC(NC(=O)CSCc2nc(-c3ccc(OC)c(OC)c3)oc2C)CC1` [4-[[2-[[2-(3,4-dimethoxyphenyl)-5-methyl-4-oxazolyl]methylthio]-1-oxoethyl]amino]-1-piperidinecarboxylic acid ethyl ester] the value was 0.08 µM; for `COc1ccc(-c2nnc(Nc3nc4c(OC)cccc4s3)o2)cc1` [MLS000045458], 7.92 µM; for `O=c1c(CC[S+]([O-])c2ccccc2)c(O)n(-c2ccccc2)n1-c1ccccc1` (centres undefined) [1,2-Diphenyl-3,5-dioxo-4-(2-phenylsulfinylethyl)pyrazolidine], 17.3 µM. In turn, `COCCNC(=O)C(c1ccncc1)N(C(=O)Cn1nnc2ccccc21)c1ccc(OC)cc1` (centres undefined) [2-(N-[2-(1-benzotriazolyl)-1-oxoethyl]-4-methoxyanilino)-N-(2-methoxyethyl)-2-pyridin-4-ylacetamide] yielded an EC50 of over 100 µM. Regarding `CCOc1ccc2[nH]c(=O)c(CN(CC3COCCO3)C(=O)C3CC3)cc2c1` (centres undefined) [MLS000031787], a half-maximal effect (EC50) was put at 45.1 µM.

For the compound `COc1ccc(-c2coc3c(CN4CCCCC4)c(O)c(CN4CCCCC4)c(O)c3c2=O)cc1` [3-(4-methoxyphenyl)-5,7-bis(oxidanyl)-6,8-bis(piperidin-1-ylmethyl)chromen-4-one], the EC50 was found to be 100 µM. In the case of `O=S1(=O)Nc2c(ccc3cccnc23)-c2ccccc21` [5H-quinolino[8,7-c][1,2]benzothiazine 6,6-dioxide], the EC50 came out at 19.9 µM.

Compound `CN1C(=S)SC(N(O)C(=O)Nc2ccccc2)C1(C)C` (centres undefined) [1-hydroxy-3-phenyl-1-(3,4,4-trimethyl-2-sulfanylidene-1,3-thiazolidin-5-yl)urea] showed an EC50 of 31.8 µM. For `CC(N=O)C(=O)NCc1ccccn1` (centres undefined) [(2E)-2-(hydroxyimino)-N-(pyridin-2-ylmethyl)propanamide] the value was 0.09 µM. Next, `Cc1cc(=O)oc2c(CN3CCC(C)CC3)c(O)c(Cl)cc12` [6-chloranyl-4-methyl-8-[(4-methylpiperidin-1-yl)methyl]-7-oxidanyl-chromen-2-one]: 4.6 µM; `COc1cccc2sc(Nc3nnc(-c4ccc(F)cc4)o3)nc12` [5-(4-fluorophenyl)-N-(4-methoxy-1,3-benzothiazol-2-yl)-1,3,4-oxadiazol-2-amine]: 6.08 µM; `COc1ccc(-n2ncc3c(N4CCCc5ccccc54)ncnc32)cc1` [1-[1-(4-methoxyphenyl)-1H-pyrazolo[3,4-d]pyrimidin-4-yl]-1,2,3,4-tetrahydroquinoline]: 52.6 µM. `C#CCN(C)C(C)Cc1ccccc1` (centres undefined) [Deprenyl] gave an EC50 of over 100 µM. For the compound `COc1ccc(C(=O)Oc2ccc(C(C)=O)cc2)c(OC)c1` [(4-acetylphenyl) 2,4-dimethoxybenzoate], the EC50 was 5.14 µM. In the case of `COc1cccc2sc(Nc3nnc(-c4cccs4)o3)nc12` [MolPort-003-038-736], the 50% effective concentration (EC50) worked out at 3.27 µM.

As to `COc1ccc(-c2nnc(Nc3nc4c(OC)cccc4s3)o2)c(OC)c1` [5-(2,4-dimethoxyphenyl)-N-(4-methoxy-1,3-benzothiazol-2-yl)-1,3,4-oxadiazol-2-amine], the EC50 was 2.84 µM. The compound `O=S(=O)(Nc1cccc2ncccc12)c1cccs1` [MLS000057468] gave a half-maximal effective concentration (EC50) of 11.4 µM. For `CCOc1ccc(-n2c(O)c(C=NCCN3CCNCC3)c(=O)[nH]c2=O)cc1` [SMR000057873] the value was 5.13 µM; for `CCCOc1ccc(C(CC(=O)O)NC(=O)c2ccc3c(c2)OCO3)cc1` (centres undefined) [MLS000085916], 11.2 µM. In the case of `COc1cccc(N2CCN(c3ncnc4c3[nH]c3ccc(F)cc34)CC2C)c1` (centres undefined) [8-fluoranyl-4-[4-(3-methoxyphenyl)-3-methyl-piperazin-1-yl]-5H-pyrimido[5,4-b]indole], the EC50 amounted to 8.78 µM. Turning to `CCOC(=O)c1cnc(-n2nc(C)cc2C)nc1NC(C)c1ccccc1` (centres undefined) [2-(3,5-dimethyl-1-pyrazolyl)-4-(1-phenylethylamino)-5-pyrimidinecarboxylic acid ethyl ester], a half-maximal effect (EC50) was put at 100 µM. The compound `COc1ccc(OC)c(NC(=O)CCN2CCCC(C)C2)c1` (centres undefined) [MLS000070519] displayed an EC50 of 14.1 µM. `Cc1ccc(C(=O)NCC(C)(C)O)cc1` [4-methyl-N-(2-methyl-2-oxidanyl-propyl)benzamide] yielded an EC50 of 2.34 µM. Compound `NC(=O)c1cc(N)ccc1N1CCCC1` [5-Amino-2-pyrrolidin-1-yl-benzamide] gave an EC50 of over 100 µM. For `Nc1nonc1C(=O)NCCN=Cc1cc(Cc2ccccc2)cc(Br)c1O` [4-amino-N-[2-[[(E)-(3-benzyl-5-bromo-6-oxocyclohexa-2,4-dien-1-ylidene)methyl]amino]ethyl]-1,2,5-oxadiazole-3-carboxamide] the value was over 100 µM; for `Cc1ccccc1CS(=O)(=O)Cc1ccc(C(=O)NCc2ccccn2)o1` [5-[(2-methylbenzyl)sulfonylmethyl]-N-(2-pyridylmethyl)-2-furamide], over 100 µM.

In turn, `CCCCC1(C(=O)OCC)CC(CN2CCOCC2)OC1=O` (centres undefined) [3-butyl-2-keto-5-(morpholinomethyl)tetrahydrofuran-3-carboxylic acid ethyl ester] registered an EC50 of 6.5 µM.
